The results in this text go back to US20140005163A1 (NOVARTIS AG, priority 2010, published 2014).

Data set [1] deals with T1, PI3K gamma (Homo sapiens, UniProt P48736).
T1 construct: His tag (C); made in house; host or cells: baculovirus (pVL1393); Tn5 or TiniPro insect cells; construct from Roger Williams lab, MRC LMB
Put plainly: PI3K gamma kinase assay (Kinase-Glo luminescence). It counts as biochemical. The essentials: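 Luminescent ATP-depletion (Kinase-Glo) assay with 150 nM PI3Kγ, 1 μM ATP and 10 μg/mL phosphatidylinositol in 10 mM Tris-HCl pH 7.5, 3 mM MgCl2, 50 mM NaCl, 0.05% CHAPS, 1 mM DTT; 120 min at room temperature. Eight-point dilutions; IC50 by four-parameter logistic fit.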

Data set [2] addresses T2, mTOR (Homo sapiens, UniProt P42345).
T2 construct: purchased Invitrogen Corporation (Carlsbad/CA, USA) PV4753
Put plainly: Biochemical assay for m-TOR by TR-FRET. To be noted: 8 μM ATP, 400 nM GFP-4EBP1, 0.5 nM mTOR. The essentials:
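mTOR (0.5 nM) was incubated at rt with ATP (8 μM final) and GFP-4EBP1 (400 nM final) in 50 mM HEPES pH 7.5, 10 mM MnCl2, 50 mM NaCl, 1 mM EGTA, 1 mM DTT. EDTA stop with Tb3+-anti-p4EBP1 [pThr46] antibody (0.5 nM); TR-FRET read 15 min later.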

A short description of data set [3]: Solubility at pH 6.8. It counts as physicochemical. The settings on record: pH 6.8, aqueous buffer, thermodynamic from solid; read-out: solubility. The essentials:
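Solubility was measured at pH 6.8 following the cited Zhou et al. (2007) procedure.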

In brackets after ≈: the same amount, converted by molar mass. Bounds are passed on as bounds.

T2 sequence (P42345 1360-2549 limits assumed): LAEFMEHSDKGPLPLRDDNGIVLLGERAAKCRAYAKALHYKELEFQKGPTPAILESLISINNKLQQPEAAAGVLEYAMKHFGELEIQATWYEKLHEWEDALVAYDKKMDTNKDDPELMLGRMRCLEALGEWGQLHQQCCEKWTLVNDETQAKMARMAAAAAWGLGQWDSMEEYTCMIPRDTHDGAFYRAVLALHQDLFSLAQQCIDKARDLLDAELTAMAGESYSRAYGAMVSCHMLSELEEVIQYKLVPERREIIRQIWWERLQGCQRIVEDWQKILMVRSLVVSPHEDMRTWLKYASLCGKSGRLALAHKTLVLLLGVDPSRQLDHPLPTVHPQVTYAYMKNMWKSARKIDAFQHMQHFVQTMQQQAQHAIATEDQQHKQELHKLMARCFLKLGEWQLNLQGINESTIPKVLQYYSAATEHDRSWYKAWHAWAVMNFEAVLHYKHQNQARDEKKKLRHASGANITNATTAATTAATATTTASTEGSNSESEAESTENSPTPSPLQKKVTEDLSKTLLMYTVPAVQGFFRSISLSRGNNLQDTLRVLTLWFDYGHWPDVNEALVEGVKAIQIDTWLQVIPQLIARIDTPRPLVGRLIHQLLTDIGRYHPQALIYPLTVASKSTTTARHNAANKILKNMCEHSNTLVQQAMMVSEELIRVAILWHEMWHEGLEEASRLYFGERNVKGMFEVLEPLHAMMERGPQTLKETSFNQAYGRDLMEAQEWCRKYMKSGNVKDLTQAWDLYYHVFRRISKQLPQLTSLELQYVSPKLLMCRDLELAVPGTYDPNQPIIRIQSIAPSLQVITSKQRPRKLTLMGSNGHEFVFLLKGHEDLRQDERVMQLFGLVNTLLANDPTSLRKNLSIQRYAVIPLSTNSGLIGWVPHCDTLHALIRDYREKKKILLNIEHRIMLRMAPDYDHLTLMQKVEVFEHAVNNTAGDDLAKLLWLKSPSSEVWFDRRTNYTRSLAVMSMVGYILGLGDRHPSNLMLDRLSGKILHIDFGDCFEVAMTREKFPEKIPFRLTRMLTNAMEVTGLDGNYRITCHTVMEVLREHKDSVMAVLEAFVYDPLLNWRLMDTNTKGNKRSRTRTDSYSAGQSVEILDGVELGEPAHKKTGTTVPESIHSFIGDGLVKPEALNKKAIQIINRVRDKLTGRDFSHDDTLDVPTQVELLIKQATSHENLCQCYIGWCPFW
T1 sequence (P48736 144-1102 limits assumed): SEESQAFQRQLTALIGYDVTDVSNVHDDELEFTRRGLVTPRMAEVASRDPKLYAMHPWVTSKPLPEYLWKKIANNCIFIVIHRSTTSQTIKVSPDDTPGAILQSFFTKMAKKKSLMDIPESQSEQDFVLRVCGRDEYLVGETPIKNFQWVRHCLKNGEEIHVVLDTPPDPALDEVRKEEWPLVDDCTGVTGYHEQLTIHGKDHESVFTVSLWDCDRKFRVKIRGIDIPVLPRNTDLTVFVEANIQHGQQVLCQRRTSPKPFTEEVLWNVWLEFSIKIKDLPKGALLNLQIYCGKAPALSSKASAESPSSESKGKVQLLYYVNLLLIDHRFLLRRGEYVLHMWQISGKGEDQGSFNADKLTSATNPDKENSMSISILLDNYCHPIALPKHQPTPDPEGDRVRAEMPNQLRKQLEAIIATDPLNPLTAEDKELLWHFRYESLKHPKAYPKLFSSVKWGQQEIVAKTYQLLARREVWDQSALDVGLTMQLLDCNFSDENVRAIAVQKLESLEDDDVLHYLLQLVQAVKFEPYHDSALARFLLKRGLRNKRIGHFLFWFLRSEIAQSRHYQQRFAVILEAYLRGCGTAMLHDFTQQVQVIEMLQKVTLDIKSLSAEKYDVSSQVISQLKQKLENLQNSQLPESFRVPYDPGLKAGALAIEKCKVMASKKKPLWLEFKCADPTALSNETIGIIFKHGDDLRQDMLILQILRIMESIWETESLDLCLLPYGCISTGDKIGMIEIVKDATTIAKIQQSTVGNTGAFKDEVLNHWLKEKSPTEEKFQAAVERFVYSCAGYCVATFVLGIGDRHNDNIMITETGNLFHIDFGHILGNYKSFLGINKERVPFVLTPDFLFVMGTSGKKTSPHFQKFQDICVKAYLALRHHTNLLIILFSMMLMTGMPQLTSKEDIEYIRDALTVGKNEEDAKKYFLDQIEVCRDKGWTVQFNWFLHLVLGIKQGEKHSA

With `COc1ccc(-c2ccc3ncc4c(c3c2)n(-c2c(C)nn(C)c2C)c(=O)n4C)cc1OC` [Example 1.9, 8-(3,4-Dimethoxy-phenyl)-3-methyl-1-(1,3,5-trimethyl-1H-pyrazol-4-yl)-1,3-dihydro-imidazo[4,5-c]quinolin-2-one], the IC50 in data set [1] was 100 nM; in data set [2], 308 nM. Besides, in data set [3], the solubility came to 315 µg/mL (≈ 710 µM).

`COc1ccc(-c2ccc3ncc4c(c3c2)n(-c2cnn(C)c2C)c(=O)n4C)cn1` [Example 2.9, 1-(1,5-Dimethyl-1H-pyrazol-4-yl)-8-(6-methoxy-pyridin-3-yl)-3-methyl-1,3-dihydro-imidazo[4,5-c]quinolin-2-one]: the IC50 in data set [1] was 206 nM; in data set [2] it was 151 nM.

Consider `CCOc1ccc(-c2ccc3ncc4c(c3c2)n(-c2cn(C)nc2Cl)c(=O)n4C)cn1` [Example 3.8, 1-(3-Chloro-1-methyl-1H-pyrazol-4-yl)-8-(6-ethoxy-pyridin-3-yl)-3-methyl-1,3-dihydro-imidazo[4,5-c]quinolin-2-one], for which the IC50 in data set [1] was 529 nM; in data set [2] it was 9 nM.

Take `Cc1c(-n2c(=O)n(C)c3cnc4ccc(-c5ccc(N(C)C)nc5)cc4c32)cnn1C` [Example 4.4, 8-(6-Dimethylamino-pyridin-3-yl)-1-(1,5-dimethyl-1H-pyrazol-4-yl)-3-methyl-1,3-dihydro-imidazo[4,5-c]quinolin-2-one]: the IC50 came to 341 nM in data set [1] and 100 nM in data set [2].

Regarding `Cc1nn(C(C)C)cc1-n1c(=O)n(C)c2cnc3ccc(-c4cnc(N(C)C)nc4)cc3c21` [Example 6.1, 8-(2-Dimethylamino-pyrimidin-5-yl)-1-(1-isopropyl-3-methyl-1H-pyrazol-4-yl)-3-methyl-1,3-dihydro-imidazo[4,5-c]quinolin-2-one], the IC50 was 182 nM in data set [1] and 30 nM in data set [2].

Take `Cc1nn(C)cc1-n1c(=O)n(C)c2cnc3ccc(-c4cccnc4)cc3c21` [Example 10.2, 1-(1,3-Dimethyl-1H-pyrazol-4-yl)-3-methyl-8-pyridin-3-yl-1,3-dihydro-imidazo[4,5-c]quinolin-2-one]: the IC50 in data set [1] was 129 nM; in data set [2], 48 nM. Besides, the solubility in data set [3] amounted to 42 µg/mL (≈ 113 µM).

`CCn1cc(-n2c(=O)n(C)c3cnc4ccc(-c5ccc(CO)nc5)cc4c32)c(C)n1` [Example 16.1, 1-(1-ethyl-3-methyl-1H-pyrazol-4-yl)-8-(6-hydroxymethyl-pyridin-3-yl)-3-methyl-1,3-dihydro-imidazo[4,5-c]quinolin-2-one]: the results for the IC50 in data set [1] and in data set [2] were 415 nM and 34 nM, respectively. Also, in data set [3], the solubility amounted to 75 µg/mL (≈ 181 µM).

`Cc1nn(C)cc1-n1c(=O)n(C)c2cnc3ccc(-c4cncc(S(C)(=O)=O)c4)cc3c21` [Example 22, 1-(1,3-Dimethyl-1H-pyrazol-4-yl)-8-(5-methanesulfonyl-pyridin-3-yl)-3-methyl-1,3-dihydro-imidazo[4,5-c]quinolin-2-one]: the results for the IC50 in data set [1] and in data set [2] were 73 nM and 121 nM, respectively.

Consider `Cc1nn(C)cc1-n1c(=O)n(C)c2cnc3ccc(-c4cncnc4)cc3c21` [Example 26, 1-(1,3-Dimethyl-1H-pyrazol-4-yl)-3-methyl-8-pyrimidin-5-yl-1,3-dihydro-imidazo[4,5-c]quinolin-2-one], for which the IC50 in data set [1] came to 777 nM; in data set [2] it was 112 nM. Moreover, in data set [3], the solubility stood at 242 µg/mL (≈ 652 µM).

For the molecule `Cc1nn(C)cc1-n1c(=O)n(C)c2cnc3ccc(-c4cc(O)cc(C(F)(F)F)c4)cc3c21` [Example 34, 1-(1,3-Dimethyl-1H-pyrazol-4-yl)-8-(3-hydroxy-5-trifluoromethyl-phenyl)-3-methyl-1,3-dihydro-imidazo[4,5-c]quinolin-2-one], the IC50 in data set [1] worked out at 82 nM; in data set [2] it was 133 nM.

Take `Cc1nn(C)cc1-n1c(=O)n(C)c2cnc3ccc(-c4cnc5[nH]ccc5c4)cc3c21` [Example 36, 1-(1,3-dimethyl-1H-pyrazol-4-yl)-3-methyl-8-(1H-pyrrolo[2,3-b]pyridin-5-yl)-1,3-dihydro-imidazo[4,5-c]quinolin-2-one]: the IC50 was 118 nM in data set [1] and less than 3 nM in data set [2].

As to `Cc1nn(C)cc1-n1c(=O)n(C)c2cnc3ccc(-c4ccc(OCC5CC5)nc4)cc3c21` [Example 42, 8-(6-Cyclopropylmethoxy-pyridin-3-yl)-1-(1,3-dimethyl-1H-pyrazol-4-yl)-3-methyl-1,3-dihydro-imidazo[4,5-c]quinolin-2-one], the IC50 in data set [1] came to 590 nM; in data set [2], 65 nM.

On to `CNC(=O)c1ccc(-c2ccc3ncc4c(c3c2)n(-c2cn(C)nc2Cl)c(=O)n4C)cc1` [Example 43.2, 4-[1-(3-Chloro-1-methyl-1H-pyrazol-4-yl)-3-methyl-2-oxo-2,3-dihydro-1H-imidazol[4,5-c]quinolin-8-yl]-N-methyl-benzamide], for which the IC50 in data set [1] worked out at 114 nM; in data set [2] it was 4 nM.

Regarding `Cc1nn(C)cc1-n1c(=O)n(C)c2cnc3ccc(-c4ccc5c(c4)CCN5C)cc3c21` [Example 50, 1-(1,3-Dimethyl-1H-pyrazol-4-yl)-3-methyl-8-(1-methyl-2,3-dihydro-1H-indol-5-yl)-1,3-dihydro-imidazo[4,5-c]quinolin-2-one], the IC50 in data set [1] came out at 334 nM; in data set [2], 157 nM.

Take `CCCOc1ccc(-c2ccc3ncc4c(c3c2)n(-c2cn(C)nc2C)c(=O)n4C)cn1` [Example 55, 1-(1,3-Dimethyl-1H-pyrazol-4-yl)-3-methyl-8-(6-propoxy-pyridin-3-yl)-1,3-dihydro-imidazo[4,5-c]quinolin-2-one]: the IC50 was 343 nM in data set [1] and 25 nM in data set [2]. Besides, the solubility in data set [3] worked out at 3 µg/mL (≈ 7 µM).

Regarding `CCOc1cccc(-c2ccc3ncc4c(c3c2)n(-c2cn(C)nc2C)c(=O)n4C)c1` [Example 57, 1-(1,3-Dimethyl-1H-pyrazol-4-yl)-8-(3-ethoxy-phenyl)-3-methyl-1,3-dihydro-imidazo[4,5-c]quinolin-2-one], the IC50 was 197 nM in data set [1] and 322 nM in data set [2].

Regarding `Cc1nn(C(C)C)cc1-n1c(=O)n(C)c2cnc3ccc(-c4ccc(C(N)=O)nc4)cc3c21` [Example 112, 5-[1-(1-Isopropyl-3-methyl-1H-pyrazol-4-yl)-3-methyl-2-oxo-2,3-dihydro-1H-imidazo[4,5-c]quinolin-8-yl]-pyridine-2-carboxylic acid amide], the IC50 turned out to be 471 nM in data set [1] and 20 nM in data set [2].

On to `C=CCn1c(=O)n(-c2cn(C)nc2C)c2c3cc(-c4cncc(N)c4)ccc3ncc21` [Example 246, 3-Allyl-8-(5-amino-pyridin-3-yl)-1-(1,3-dimethyl-1H-pyrazol-4-yl)-1,3-dihydro-imidazo[4,5-c]quinolin-2-one], for which the concentration for half-maximal inhibition (IC50) in data set [2] stood at 147 nM. The solubility in data set [3] is 75 µg/mL (≈ 182 µM).

Turning to `CCN(CC)C(=O)Cn1cc(-n2c(=O)n(C)c3cnc4ccc(-c5cnc(N6CCCC6)nc5)cc4c32)c(C)n1` [Example 247.1, N,N-Diethyl-2-{3-methyl-4-[3-methyl-2-oxo-8-(2-pyrrolidin-1-yl-pyrimidin-5-yl)-2,3-dihydro-imidazo[4,5-c]quinolin-1-yl]-pyrazol-1-yl}-acetamide], the IC50 in data set [2] was 13 nM. For the same molecule, in data set [3], the solubility came out at 69 µg/mL (≈ 128 µM).

By IC50 is commonly meant the concentration needed to halve the response being measured. Broadly, the solubility is the dissolved amount per volume that the medium holds.
